Test results: US7312248B2, “Control of parasites in animals by the use of novel trifluoromethanesulfonanilide oxime ether derivatives” (Schering-Plough Animal Health Corporation, priority 2004, dated 2007)
Read-outs that look alike come from different tables or passages of the source.

Columns and labels:
Haemonchus contortus = Haemonchus contortus larvacidal (larval development) assay; assay type: in vivo; details: 144 h, read-out: Haemonchus contortus LD99
Procedure: a) Haemonchus Contortus Larvacidal Assay:
The effect of compounds on larval development was determined in the assay described by Gill et al. (1995, International Journal of Parasitology 25:463-470). Briefly, in this assay, nematode eggs were applied to the surface of an agar matrix containing the test compound and then allowed to develop through to the L3, infective stage (6 days). The wells for each dilution of every compound (from highest to lowest concentration) were inspected to determine the well number corresponding to the lowest concentration at which development was inhibited in 99% of the nematode larvae present (LD99). Because well numbers correspond to a two-fold serial dilution of each compound, a titre (dilution factor) is generated as 2^n−1, where n is the well number. By dividing the highest concentration tested by the titre an LD99 value can be obtained, representing the concentration required to inhibit development in 99% of the nematode larvae present. The compounds supplied as solid and viscous liquids were dissolved in DMSO. Twelve serial one-half dilutions in DMSO solution were prepared from the stock solution, each of which was then diluted ⅕ with water. Aliquots (10 μl) of each dilution were transferred to the bioassay plates to give a final concentration range of 0.024 to 50 μg/ml.

[1] = test system: cat flea (Ctenocephalides felis); test: whole plant or invertebrate; assay type: in vivo; details: Ctenocephalides felis
Procedure: b) Ctenocephalides felis Adulticide Assay: C. felis Single Dose Screen
Mortality of fleas was the primary endpoint in the assay. Fleas were considered dead if they didn't move or were on their sides and unable to walk or right themselves. […] The concentration chosen (1.26 μg/cm^2) was higher than that known to kill 90% of cat fleas (LC90) using the reference compound, permethrin.
The test species was the cat flea (Ctenocephalides felis). The strain used was obtained from external suppliers as pupae and held in the laboratory under testing conditions until the adults had emerged. Fifteen (15) fleas were used in a minimum of four replicates against a single concentration level (approximately 60 fleas). The insects were selected to be in the adult life stage, aged between 3 and 7 days post emergence.
The compounds to be tested were supplied as solids and were prepared in acetone as described below prior to testing. Samples were stored in a refrigerator (5±1° C.) unless otherwise specified.
During the mortality testing, the temperature was maintained at 25±1° C. Humidity was maintained at 75±5%. The base (area=159 mm^2) of a 100 mL glass Erlenmeyer (conical) flask provided the treatment surface. Flasks were pretreated with Coatasil™ glass treatment to maximise bio-availability of test compounds by preventing them from binding to glass the surface. The base of the 100 mL Erlenmeyer flask was treated with 0.5 mL of test sample in acetone and gently swirled. This volume was sufficient to cover the base of the flask. Flasks were left to dry for 24 hours before flea exposure.
Adult cat fleas were placed into a sorting chamber, which allowed fleas to jump into the Erlenmeyer flasks. Fifteen (15) adult cat fleas were collected in each flask. The top of the flasks were then covered in Parafilm™ and small holes were made to allow gas exchange. A 0.5 mL volume of acetone as a solvent control was applied to the base of an Erlenmeyer flask and the testing proceeded in the same manner described above. Cat fleas in the treatment containers were held under testing conditions for 8, 24 and/or 48 hours. Mortality was recorded at 8, 24, 8 and 24, or 24 and 48 hours. Pooled 8, 24, 8 and 24, and 24 and 48 hour mortality data were converted to percentages and are summarized by Tables 14, 14A and 14B, below.

[2] = 24 h, read-out: C. felis Mortality (%) 24 h, 24 h, Laboratory 1 A data

| Structure (SMILES) | IC99 (Haemonchus contortus) | further results |
| --- | --- | --- |
| O=S(=O)(Nc1ccc(Cl)cc1/C(=N/OCc1cccc(Cl)c1)c1ccccc1)C(F)(F)F [Compound 71] | 3 µg/mL | – |
| CCC/C(=N\OCCOc1ccccc1)c1cc(Cl)ccc1NS(=O)(=O)C(F)(F)F [Compound 115] | 7.5 µg/mL | – |
| O=S(=O)(Nc1ccc(Cl)cc1/C(=N/OCc1ccccc1C(F)(F)F)c1ccccc1)C(F)(F)F [Compound 69] | 2.7 µg/mL | – |
| CC/C(=N\OCc1cccc(Cl)c1)c1cc(Cl)ccc1NS(=O)(=O)C(F)(F)F [Compound 7] | 1.6 µg/mL | – |
| CC(C)/C(=N\OCc1ccc(C2CCCCC2)cc1)c1cc(Cl)ccc1NS(=O)(=O)C(F)(F)F [Compound 118] | 10 µg/mL | – |
| CCC/C(=N\OCc1cccc(Cl)c1Cl)c1cc(Cl)ccc1NS(=O)(=O)C(F)(F)F [Compound 99] | 2.5 µg/mL | – |
| CC/C(=N\Oc1ccc(Br)cc1)c1cc(Cl)ccc1NS(=O)(=O)C(F)(F)F [Compound 138] | 1.7 µg/mL | mortality at 1.26 µg/cm2, 1.26 µg/cm2 [1, 2]: 78% |
| CC/C(=N\OCc1ccccc1)c1cc(Cl)ccc1NS(=O)(=O)C(F)(F)F [Compound 107] | 10 µg/mL | – |
| O=S(=O)(Nc1ccc(Cl)cc1/C=N/OCc1ccc(Cl)cc1)C(F)(F)F [Compound 81] | 1.7 µg/mL | – |
| C/C(=N\Oc1ccc(C#N)cc1)c1cc(Cl)ccc1NS(=O)(=O)C(F)(F)F [Compound 135] | 3 µg/mL | mortality at 1.26 µg/cm2, 1.26 µg/cm2 [1, 2]: 47% |
| C/C(=N\Oc1ccc(Cl)c(Cl)c1)c1cc(Cl)ccc1NS(=O)(=O)C(F)(F)F [Compound 140] | 0.7 µg/mL | mortality at 1.26 µg/cm2, 1.26 µg/cm2 [1, 2]: 71% |
| CC/C(=N\OCc1ccc(F)cc1)c1cc(Cl)ccc1NS(=O)(=O)C(F)(F)F [Compound 86] | 3.5 µg/mL | – |
| CC(C)/C(=N\OCc1ccc(Cl)cc1Cl)c1cc(Cl)ccc1NS(=O)(=O)C(F)(F)F [Compound 119] | 1.2 µg/mL | – |
| CCC/C(=N\OCCc1ccccc1)c1cc(Cl)ccc1NS(=O)(=O)C(F)(F)F [Compound 110] | 5 µg/mL | – |
| C/C(=N\OCc1cccc(Cl)c1Cl)c1cc(Cl)ccc1NS(=O)(=O)C(F)(F)F [Compound 19] | 0.7 µg/mL | – |
| CCC/C(=N\OCc1ccc(Br)cc1)c1cc(Cl)ccc1NS(=O)(=O)C(F)(F)F [Compound 102] | 1.9 µg/mL | – |
| CC/C(=N\OCc1c(Cl)cccc1Cl)c1cc(Cl)ccc1NS(=O)(=O)C(F)(F)F [Compound 8] | 13 µg/mL | – |
| O=S(=O)(Nc1ccc(Cl)cc1/C(=N/OCc1cccc(Cl)c1Cl)c1ccccc1)C(F)(F)F [Compound 62] | 3 µg/mL | – |
| N#Cc1ccc(CO/N=C(\c2ccccc2)c2cc(Cl)ccc2NS(=O)(=O)C(F)(F)F)cc1 [Compound 80] | 3.5 µg/mL | – |
| C/C(=N\OC(C)c1ccccc1)c1cc(Cl)ccc1NS(=O)(=O)C(F)(F)F (centres unmarked) [Compound 122] | 7 µg/mL | – |
| CCC/C(=N\OCc1cc(Br)cc(Br)c1)c1cc(Cl)ccc1NS(=O)(=O)C(F)(F)F [Compound 113] | 3.8 µg/mL | – |
| C/C(=N\OCc1ccccc1)c1cc(Cl)ccc1NS(=O)(=O)C(F)(F)F [Compound 22] | 6 µg/mL | – |
| O=S(=O)(Nc1ccc(Cl)cc1/C=N/OCc1cccc(Cl)c1Cl)C(F)(F)F [Compound 95] | 0.8 µg/mL | – |
| O=S(=O)(Nc1ccc(Cl)cc1/C(=N/OCc1cccc(C(F)(F)F)c1)c1ccccc1)C(F)(F)F [Compound 68] | 3.5 µg/mL | – |
| O=S(=O)(Nc1ccc(Cl)cc1/C(=N/OCc1ccc(Br)cc1)c1ccccc1)C(F)(F)F [Compound 64, N-{2-[(4-bromobenzyloxyimino)phenylmethyl]-4-chlorophenyl}trifluoromethanesulfonamide] | 1.4 µg/mL | – |
| O=S(=O)(Nc1ccc(Cl)cc1/C(=N/OCc1ccccc1)c1ccccc1)C(F)(F)F [Compound 66] | 13 µg/mL | – |
| O=S(=O)(Nc1ccc(Cl)cc1/C(=N/OCc1ccc(Cl)cc1)c1ccccc1)C(F)(F)F [Compound 63] | 1.6 µg/mL | – |

| Structure (SMILES) | IC99 (Haemonchus contortus) | further results |
| --- | --- | --- |
| CCC/C(=N\OCc1ccc(Cl)cc1)c1cc(Cl)ccc1NS(=O)(=O)C(F)(F)F [Compound 112] | 3 µg/mL | – |
| C/C(=N\OCc1ccccc1Cl)c1cc(Cl)ccc1NS(=O)(=O)C(F)(F)F [Compound 17] | 3.5 µg/mL | – |
| CC/C(=N\OCc1cccc(C(F)(F)F)c1)c1cc(Cl)ccc1NS(=O)(=O)C(F)(F)F [Compound 12] | 1.7 µg/mL | – |
| C/C(=N\OCc1ccc(Br)cc1)c1cc(Cl)ccc1NS(=O)(=O)C(F)(F)F [Compound 23] | 0.8 µg/mL | – |
| C/C(=N\OCc1ccccc1C(F)(F)F)c1cc(Cl)ccc1NS(=O)(=O)C(F)(F)F [Compound 13] | 3 µg/mL | – |
| O=S(=O)(Nc1ccc(Cl)cc1/C=N/OCc1ccc(C(F)(F)F)cc1)C(F)(F)F [Compound 70] | 3 µg/mL | – |
| C/C(=N\OCc1cccc(C(F)(F)F)c1)c1cc(Cl)ccc1NS(=O)(=O)C(F)(F)F [Compound 15] | 2.7 µg/mL | – |
| CCC/C(=N\OCc1ccc(Cl)c(Cl)c1)c1cc(Cl)ccc1NS(=O)(=O)C(F)(F)F [Compound 101] | 1.9 µg/mL | – |
| CC/C(=N\OCCCc1ccccc1)c1cc(Cl)ccc1NS(=O)(=O)C(F)(F)F [Compound 105] | 3.5 µg/mL | – |
| O=S(=O)(Nc1ccc(Cl)cc1-c1cc(-c2ccccc2)on1)C(F)(F)F [Compound 225] | – | IC99 (Haemonchus contortus; lowest concentration inhibiting development in 99% of larvae, eggs to L3, 6 days, range 0.024 to 50 μg/ml): 3.2 µg/mL |
| C/C(=N\OCc1cccc(Oc2ccccc2)c1)c1cc(Cl)ccc1NS(=O)(=O)C(F)(F)F [Compound 47] | 1.5 µg/mL | – |
| C/C(=N\OCc1ccccc1F)c1cc(Cl)ccc1NS(=O)(=O)C(F)(F)F [Compound 39] | 7 µg/mL | – |
| C/C(=N\OCc1cccc(Cl)c1)c1cc(Cl)ccc1NS(=O)(=O)C(F)(F)F [Compound 18] | 3.7 µg/mL | – |
| COc1ccc(CO/N=C(\c2ccccc2)c2cc(Cl)ccc2NS(=O)(=O)C(F)(F)F)cc1 [Compound 88] | 15 µg/mL | – |
| O=S(=O)(Nc1ccc(Cl)cc1/C(=N/Oc1ccc(F)cc1)C1CCCCC1)C(F)(F)F [Compound 169, N-{4-chloro-2-[(4-fluorophenoxyimino)cyclohexylmethyl]phenyl}trifluoromethanesulfonamide] | – | mortality at 1.26 µg/cm2, 1.26 µg/cm2 [1, 2]: 9% |
| CC/C(=N\OC(C)C)c1cc(Cl)ccc1NS(=O)(=O)C(F)(F)F [Compound 154] | – | mortality at 1.26 µg/cm2, 1.26 µg/cm2 [1, 2]: 100% |
| C/C(=N\OCc1ccc([N+](=O)[O-])cc1)c1cc(Cl)ccc1NS(=O)(=O)C(F)(F)F [Compound 4] | 2.5 µg/mL | – |
| O=S(=O)(Nc1ccc(Cl)cc1-c1cc(C2CCCCC2)on1)C(F)(F)F [Compound 292] | – | mortality at 1.26 µg/cm2 ([1]; 8 h, read-out: Ctenocephalides felis Mortality (%) 8 h): 15%; mortality at 1.26 µg/cm2 ([1]; 24 h, read-out: Ctenocephalides felis Mortality (%) 24 h): 92% |
| C/C(=N\Oc1ccc(OC(F)(F)F)cc1)c1cc(Cl)ccc1NS(=O)(=O)C(F)(F)F [Compound 151] | – | mortality at 1.26 µg/cm2, 1.26 µg/cm2 [1, 2]: 62% |
| CC/C(=N\OC(C)C1CC1)c1cc(Cl)ccc1NS(=O)(=O)C(F)(F)F (centres unmarked) [Compound 254] | – | mortality at 1.26 µg/cm2, 1.26 µg/cm2 ([1]; 24 h, read-out: C. felis Mortality (%) 24 h, 24 h, Laboratory 2 B data): 84%; mortality at 1.26 µg/cm2, 1.26 µg/cm2 ([1]; 48 h, read-out: C. felis Mortality (%) 48 h, 48 h, Laboratory 2 B data): 100% |
| CC/C(=N\OCc1ccc(-c2ccccc2)cc1)c1cc(Cl)ccc1NS(=O)(=O)C(F)(F)F [Compound 94] | 7.5 µg/mL | – |
| CCO/N=C(\C)c1cccc(C)c1NS(=O)(=O)C(F)(F)F [Compound 43] | – | mortality at 1.26 µg/cm2, 1.26 µg/cm2 [1, 2]: 86% |
| CC(C)/C(=N\OCc1ccc(Cl)cc1)c1cc(Cl)ccc1NS(=O)(=O)C(F)(F)F [Compound 117] | 3.5 µg/mL | – |
| O=S(=O)(Nc1ccc(Cl)cc1/C(=N/OCc1ccc(F)cc1F)c1ccccc1)C(F)(F)F [Compound 82] | 3.3 µg/mL | – |
| CCO/N=C(\C)c1ccccc1NS(=O)(=O)C(F)(F)F [Compound 29] | – | mortality at 1.26 µg/cm2, 1.26 µg/cm2 [1, 2]: 92% |
| C/C(=N\Oc1ccc(F)c(Cl)c1)c1cc(Cl)ccc1NS(=O)(=O)C(F)(F)F [Compound 144] | – | mortality at 1.26 µg/cm2, 1.26 µg/cm2 [1, 2]: 15% |
| C/C(=N\OCc1c(Cl)cccc1Cl)c1cc(Cl)ccc1NS(=O)(=O)C(F)(F)F [Compound 20] | 12 µg/mL | – |
